For the test, the target named is T1, Human TRPV3 (Homo sapiens, UniProt Q8NET8).
T1 construct: expressed in transfected cells; host or cells: CHO cells (selected with G-418)
T1 sequence (Q8NET8 1-790): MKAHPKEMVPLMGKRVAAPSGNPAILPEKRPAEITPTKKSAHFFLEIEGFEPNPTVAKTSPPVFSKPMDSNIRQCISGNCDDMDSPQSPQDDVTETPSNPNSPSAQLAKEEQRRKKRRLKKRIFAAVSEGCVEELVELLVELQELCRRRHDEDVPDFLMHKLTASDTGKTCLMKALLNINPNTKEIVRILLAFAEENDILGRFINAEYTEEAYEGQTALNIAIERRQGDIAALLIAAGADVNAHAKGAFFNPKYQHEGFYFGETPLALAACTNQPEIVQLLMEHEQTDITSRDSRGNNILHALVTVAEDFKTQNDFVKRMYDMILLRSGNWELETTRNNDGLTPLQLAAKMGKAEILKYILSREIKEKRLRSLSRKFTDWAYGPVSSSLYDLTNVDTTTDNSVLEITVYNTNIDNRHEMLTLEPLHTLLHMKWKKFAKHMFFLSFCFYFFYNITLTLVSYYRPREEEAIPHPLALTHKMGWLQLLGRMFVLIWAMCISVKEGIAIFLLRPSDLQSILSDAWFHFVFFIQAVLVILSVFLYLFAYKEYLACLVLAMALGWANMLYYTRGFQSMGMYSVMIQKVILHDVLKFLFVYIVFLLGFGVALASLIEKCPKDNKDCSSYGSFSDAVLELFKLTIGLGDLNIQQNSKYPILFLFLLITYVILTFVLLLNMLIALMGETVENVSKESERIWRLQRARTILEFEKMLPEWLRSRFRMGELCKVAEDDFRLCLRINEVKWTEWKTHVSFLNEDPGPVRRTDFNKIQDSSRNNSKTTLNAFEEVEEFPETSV
As to the kind of experiment: 45Calcium uptake assay: inhibition of 2-APB induced cellular uptake of radioactive calcium. The class given is cell-based. The conditions noted are these: human TRPV3 expressing CHO cells, 2-APB 500 μM; for inhibition at 1 µM: 1 μM test compound, read-out: Percentage Inhibition (1 μM); for inhibition at 10 µM: 10 μM test compound, read-out: Percentage Inhibition (10 μM); for IC50: class symbol. From the text: The illustrative examples of the present invention are screened for TRPV3 activity according to a modified procedure described in Tóth, A., Kedei, N., Wang, Y. and Blumberg, P. M. Life Sciences (2003), 73, 487-498. The screening of the compounds can be carried out by other methods and procedures known to a person skilled in the art. Such screening methods may be found in (a) Hu, H.-Z. et al. J. Biol. Chem. (2004), 279, 35741-35747; (b) Smith, G. D. et al. Nature (2002), 418, 186-190; (c) Peier, A. M. et al. Science (2002), 296, 2046-2049.
Screening for TRPV3 antagonist using the ^45Calcium uptake assay The inhibition of TRPV3 receptor activation was followed as inhibition of 2-aminoethoxydiphenylborate (2-APB) induced cellular uptake of radioactive calcium. Test compounds were dissolved in dimethyl sulfoxide (DMSO) to prepare 20 mM stock solution and then diluted using plain medium with DMEM/F-12 containing 1.8 mM CaCl2 to get desired concentration. Final concentration of DMSO in the reaction was 0.5% (v/v). Human TRPV3 expressing CHO cells were grown in DMEM/F-12 medium with 10% FBS, 1% penicillin-streptomycin solution, 400 μg/ml of G-418. Cells were seeded 24 h prior to the assay in 96 well plates so as to get ˜50,000 cells per well on the day of experiment. Cells were treated with test compounds for 10 minutes followed by addition of 2-APB at a final concentration of 500 μM and 5 μCi/ml^45Ca^+2 for 4 minutes. Cells were washed and lysed using buffer containing 1% Triton X-100, 0.1% deoxycholate and 0.1% SDS. Radioactivity in the lysate was measured in Packardt Top count after addition of liquid scintillant. Concentration response curves were plotted as a % of maximal response obtained in the absence of test antagonist. IC50 value was calculated from concentration response curve by nonlinear regression analysis using GraphPad PRISM software.
Percentage inhibition at concentrations of 1.0 μM and 10.0 μM are given in the table along with IC50 details for selected examples.

Some results are limits rather than exact numbers.

As to `COc1cccc(/C=C/c2nc3ccccc3n2Cc2ccc(C#N)cc2)c1OCc1ccccc1F` [Example 44, 4-({2-[(E)-2-(2-{2-Fluorobenzyloxy}-3-methoxyphenyl)vinyl]-1H-benzimidazol-1-yl}methyl)benzonitrile], the inhibition (usually how much of the control response was suppressed) at 1 µM is 60% and the inhibition at 10 µM is 87.1%.
For `COc1cccc(/C=C/c2nc3ccccc3n2-c2ccc(C(F)(F)F)cn2)c1OCc1ccccc1` [Example 28, 2-[(E)-2-(2-Benzyloxy-3-methoxyphenyl)vinyl]-1-[5-(trifluoromethyl)pyridin-2-yl]-1H-benzimidazole], the inhibition at 1 µM is 77.1%; the inhibition at 10 µM turned out to be 92.6%; the IC50 (as a rule, the point on the concentration scale where inhibition reaches its midpoint) fell in the range of 100 to 500 nM.
In the same order, the values of `COc1cccc(/C=C/c2nc3ccccc3n2-c2ccc(C#N)cn2)c1OCc1ccccc1C(F)(F)F` [Example 16, 6-{2-[(E)-2-(3-Methoxy-2-{[2-(trifluoromethyl)benzyl]oxy}phenyl)vinyl]-1H-benzimidazole-1-yl}nicotinonitrile] are 97.7%, 99% and 50 to 100 nM.
Taken in the same sequence, the figures for `CCC(CC)Oc1c(/C=C/c2nc3ccccc3n2-c2ncc(Br)cn2)cccc1OC` [Example 22, 1-(5-Bromopyrimidin-2-yl)-2-{(E)-2-[2-(1-ethylpropoxy)-3-methoxyphenyl]vinyl}-1H-benzimidazole] were 70.6%, 89.2% and 100 to 500 nM.
In the same order, the values of `COc1cccc(/C=C/c2nc3ccccc3n2-c2ccc(Cl)cn2)c1OC1CCCC1` [Example 3, 1-(5-Chloropyridin-2-yl)-2-{(E)-2-[2-(cyclopentyloxy)-3-methoxyphenyl]vinyl}-1H-benzimidazole] are 62.1%, 86.6% and over 500 nM.
As for `CCCCOc1c(/C=C/c2nc3cc(F)c(F)cc3n2-c2ccc(C#N)cn2)cccc1OC` [Example 64, 6-{2-[(E)-2-(2-Butoxy-3-methoxyphenyl)vinyl]-5,6-difluoro-1H-benzimidazol-1-yl}-nicotinonitrile], the inhibition at 1 µM stood at 96.4%, the inhibition at 10 µM is 99.9% and the concentration for half-maximal inhibition (IC50) is 100 to 500 nM.
Consider `N#Cc1ccc(-n2c(/C=C/c3cccc(OC(F)F)c3OC3CCCC3)nc3cc(F)c(F)cc32)nc1` [Example 84, 6-(2-{(E)-2-[2-(Cyclopentyloxy)-3-difluoromethoxyphenyl-]vinyl}-5,6-difluoro-1H-benzimidazol-1-yl)nicotinonitrile], for which the inhibition at 1 µM worked out at 98.4%, the inhibition at 10 µM worked out at 99.3% and the IC50 was under 50 nM.
Regarding `COc1cccc(/C=C/c2nc3cccnc3n2-c2ccc(C#N)cn2)c1OC1CCCC1` [Example 91, 6-{2-[(E)-2-(2-[Cyclopentyloxy]-3-methoxyphenyl)vinyl]-3H-imidazo[4,5-b]pyridin-3-yl}nicotinonitrile], the inhibition at 1 µM was 95.3%, the inhibition at 10 µM was 99.7% and the IC50 is 100 to 500 nM.
As to `COc1cccc(/C=C/c2nc3ccccc3n2-c2nccs2)c1OCC1CC1` [Example 46], the inhibition at 1 µM worked out at 16.1% and the inhibition at 10 µM turned out to be 81.1%.
As to `CCCCCOc1c(/C=C/c2nc3cc(F)c(F)cc3n2-c2ccc(C#N)cn2)cccc1OC(F)F` [Example 82, 6-(2-{(E)-2-[3-(Difluoromethoxy)-2-pentyloxyphenyl]vinyl}-5,6-difluoro-1H-benzimidazol-1-yl)nicotinonitrile], the inhibition at 1 µM was 97%, the inhibition at 10 µM came out at 98.9% and the concentration for half-maximal inhibition (IC50) was in the range of 50 to 100 nM.
As for `CCCCOc1c(/C=C/c2nc3ccccc3n2-c2ccc(C(F)(F)F)cn2)cccc1OC` [Example 85, 2-[(E)-2-(2-butoxy-3-methoxyphenyl)vinyl]-1-(5-trifluoromethylpyridin-2-yl)-1H-benzimidazole], the inhibition at 1 µM came out at 71.1%, the inhibition at 10 µM was found to be 90.2% and the IC50 lay within 100 to 500 nM.

Source of the values: patent US8344010B2, “Fused imidazole derivatives as TRPV3 antagonist” (Glenmark Pharmaceuticals S.A., priority 2008, dated 2013).
